Results: patent publication US11458138B2 (Novartis AG, priority 2017, dated 2022)

What was measured:
[1] = tested on: YAP nuclear translocation in HaCaT cells; test: YAP Translocation Assay (HaCaT Cells); assay type: cell-based, human; conditions: Homo sapiens, 24 hours
Protocol: HaCaT cells were suspended at 0.4×10^6 cells/ml in DMEM+10% FBS with penicillin-streptomycin-glutamine. 50 μl of cells were dispensed into 384-well clear bottom assay plates (20,000 cells/well), and incubated overnight at 37° C. 100 nL test compound was transferred into the assay wells containing HaCaT cells using ECHO (Labcyte). After 24 hours incubation at 37° C., 7 μL of 32% PFA was dispensed into each well and incubated for 45 minutes at room temperature. Plates were washed 3 times with PBS, leaving 20 μL of PBS per well, then treated with 0.1% Triton and 1.5% BSA in PBS for 45 minutes at room temperature. Plates were washed for 5 times with PBS, leaving 20 μL of PBS per well. […] Plates were further washed 3 time with PBS, sealed and imaged on the high-content Opera imaging system (PerkinElmer).

LATS1 = LATS1 (Homo sapiens (Human), UniProt O95835); test: LATS1 biochemical assay (Table 1A, Compound Examples 1-290; method in the earlier part)
Chain of LATS1 (O95835 whole entry, looked up): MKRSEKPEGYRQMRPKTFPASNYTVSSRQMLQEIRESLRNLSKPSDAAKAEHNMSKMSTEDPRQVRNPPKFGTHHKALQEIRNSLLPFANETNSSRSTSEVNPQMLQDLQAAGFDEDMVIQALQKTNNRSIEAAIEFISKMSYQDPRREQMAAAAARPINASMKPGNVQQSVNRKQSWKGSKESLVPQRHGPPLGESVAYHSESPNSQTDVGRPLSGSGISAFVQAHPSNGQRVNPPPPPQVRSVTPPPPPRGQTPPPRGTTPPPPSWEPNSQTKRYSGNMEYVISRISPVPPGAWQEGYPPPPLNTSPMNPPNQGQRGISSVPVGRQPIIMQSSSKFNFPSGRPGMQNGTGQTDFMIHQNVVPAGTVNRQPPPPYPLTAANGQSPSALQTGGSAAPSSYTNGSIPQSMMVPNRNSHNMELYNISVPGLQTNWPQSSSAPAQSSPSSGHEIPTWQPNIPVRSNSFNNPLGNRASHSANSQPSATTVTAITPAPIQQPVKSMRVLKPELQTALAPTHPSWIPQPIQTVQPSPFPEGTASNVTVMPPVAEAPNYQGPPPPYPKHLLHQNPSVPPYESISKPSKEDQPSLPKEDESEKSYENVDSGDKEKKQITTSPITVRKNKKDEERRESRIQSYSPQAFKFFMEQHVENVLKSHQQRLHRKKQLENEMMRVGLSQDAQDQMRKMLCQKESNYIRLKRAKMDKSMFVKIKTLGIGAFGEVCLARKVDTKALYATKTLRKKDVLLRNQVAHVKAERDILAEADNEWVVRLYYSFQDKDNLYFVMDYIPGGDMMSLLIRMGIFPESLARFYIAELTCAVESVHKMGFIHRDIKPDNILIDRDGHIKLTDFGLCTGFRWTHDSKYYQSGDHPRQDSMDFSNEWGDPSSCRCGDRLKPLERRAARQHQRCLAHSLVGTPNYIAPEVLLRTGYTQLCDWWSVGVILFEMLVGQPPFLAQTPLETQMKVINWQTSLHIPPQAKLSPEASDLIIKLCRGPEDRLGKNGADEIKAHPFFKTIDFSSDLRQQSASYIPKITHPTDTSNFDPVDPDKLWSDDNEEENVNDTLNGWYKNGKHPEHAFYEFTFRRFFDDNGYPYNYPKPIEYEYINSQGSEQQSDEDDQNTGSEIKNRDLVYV
Chain of LATS1 (Q7L9L4 whole entry partner, looked up): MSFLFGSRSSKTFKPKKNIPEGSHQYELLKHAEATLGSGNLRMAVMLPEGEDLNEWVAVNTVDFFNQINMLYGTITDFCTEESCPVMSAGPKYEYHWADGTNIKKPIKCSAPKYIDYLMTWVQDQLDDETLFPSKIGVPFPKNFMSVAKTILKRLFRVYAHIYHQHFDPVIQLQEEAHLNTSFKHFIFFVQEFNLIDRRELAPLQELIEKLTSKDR

| Structure (SMILES) | EC50 [1] | IC50 (LATS1) |
| --- | --- | --- |
| Fc1ccc(Nc2nc(-c3ccncc3)nc3cnccc23)cc1 [Example 96, N-(4-fluorophenyl)-2-(pyridin-4-yl)pyrido[3,4-d]pyrimidin-4-amine] | > 20000 nM | > 1700 nM |
| Cc1n[nH]cc1-c1nc(NC(C)c2ccncc2)c2ccncc2n1 (stereo not shown) [Example 190, 2-(3-methyl-1H-pyrazol-4-yl)-N-[1-(pyridin-4-yl)ethyl]pyrido[3,4-d]pyrimidin-4-amine] | > 20000 nM | 99 nM |
| C[C@](Nc1nc(-c2ccncc2)nc2cnccc12)(C(=O)O)C(F)(F)F [Example 29, (2S)-3,3,3-trifluoro-2-methyl-2-{[2-(pyridin-4-yl)pyrido[3,4-d]pyrimidin-4-yl]amino}propanoic acid] | > 20000 nM | 36 nM |
| Cc1cc(-c2nc(NC3(C)CC3)c3ccncc3n2)on1 [Example 181, 2-(3-methyl-1,2-oxazol-5-yl)-N-(1-methylcyclopropyl)pyrido[3,4-d]pyrimidin-4-amine] | > 10000 nM | 9000 nM |
| CC1(C)CC(O)CCN1c1cc(-c2ccncc2)nc2cnccc12 (stereo not shown) [Example 262, 2,2-dimethyl-1-[2-(pyridin-4-yl)-1,7-naphthyridin-4-yl]piperidin-4-ol] | 311 nM | 3 nM |
| Clc1cnccc1-c1nc(NC2CCCC2)c2ccncc2n1 [Example 126, 2-(3-chloropyridin-4-yl)-N-cyclopentylpyrido[3,4-d]pyrimidin-4-amine] | > 20000 nM | 53 nM |
| CC1(Nc2nc(-c3nn[nH]n3)nc3cnccc23)CC1 [Example 182, N-(1-methylcyclopropyl)-2-(2H-1,2,3,4-tetrazol-5-yl)pyrido[3,4-d]pyrimidin-4-amine] | > 20000 nM | > 10000 nM |
| CCCNc1nc(-c2ccncc2Cl)nc2cnccc12 [Example 162, 2-(3-chloropyridin-4-yl)-N-propylpyrido[3,4-d]pyrimidin-4-amine] | > 20000 nM | 49 nM |
| CC(C)(O)CC(C)(C)Nc1nc(-c2c[nH]nc2C(F)(F)F)nc2cnccc12 [Example 119, 2,4-dimethyl-4-({2-[3-(trifluoromethyl)-1H-pyrazol-4-yl]pyrido[3,4-d]pyrimidin-4-yl}amino)pentan-2-ol] | 5180 nM | 9 nM |
| CC(C)N(C)c1cc(-c2ccncc2)nc2cnccc12 [Example 259, N-methyl-N-(propan-2-yl)-2-(pyridin-4-yl)-1,7-naphthyridin-4-amine] | 17300 nM | 61 nM |
| CC1(Nc2nc(-c3cnoc3)nc3cnccc23)CC1 [Example 152, N-(1-methylcyclopropyl)-2-(1,2-oxazol-4-yl)pyrido[3,4-d]pyrimidin-4-amine] | > 20000 nM | > 2500 nM |
| OCC(CO)(CO)Nc1nc(-c2ccncc2)nc2cnccc12 [Example 36, 2-(hydroxymethyl)-2-{[2-(pyridin-4-yl)pyrido[3,4-d]pyrimidin-4-yl]amino}propane-1,3-diol] | > 20000 nM | 199 nM |
| CCCNc1nc(-c2cn(C)c3ncccc23)nc2cnccc12 [Example 165, 2-{1-methyl-1H-pyrrolo[2,3-b]pyridin-3-yl}-N-propylpyrido[3,4-d]pyrimidin-4-amine] | > 20000 nM | > 2500 nM |
| OCCOCCNc1nc(-c2ccncc2)nc2cnccc12 [Example 35, 2-(2-{[2-(pyridin-4-yl)pyrido[3,4-d]pyrimidin-4-yl]amino}ethoxy)ethan-1-ol] | > 20000 nM | 118 nM |
| CCn1nccc1-c1nc(NC2(C)CC2)c2ccncc2n1 [Example 173, 2-(1-ethyl-1H-pyrazol-5-yl)-N-(1-methylcyclopropyl)pyrido[3,4-d]pyrimidin-4-amine] | > 20000 nM | 61 nM |
| CC(C)(C)Nc1nc(-c2cc(Cl)ncc2C(F)(F)F)nc2cnccc12 [Example 131, N-tert-butyl-2-[2-chloro-5-(trifluoromethyl)pyridin-4-yl]pyrido[3,4-d]pyrimidin-4-amine] | > 20000 nM | > 833 nM |
| Cc1n[nH]cc1-c1nc(NC2(CO)CCC2)c2ccncc2n1 [Example 185, (1-{[2-(3-methyl-1H-pyrazol-4-yl)pyrido[3,4-d]pyrimidin-4-yl]amino}cyclobutyl)methanol] | 11500 nM | 9 nM |
| Cc1c(-c2nc(NC(C)(C)C)c3ccncc3n2)c2cccnc2n1S(=O)(=O)c1ccccc1 [Example 113, 2-[1-(benzenesulfonyl)-2-methyl-1H-pyrrolo[2,3-b]pyridin-3-yl]-N-tert-butylpyrido[3,4-d]pyrimidin-4-amine] | > 20000 nM | 235 nM |
| O=C(O)C1CC(Nc2nc(-c3ccncc3)nc3cnccc23)C1 (stereo not shown) [Example 57, (1s,3s)-3-{[2-(pyridin-4-yl)pyrido[3,4-d]pyrimidin-4-yl]amino}cyclobutane-1-carboxylic acid] | > 20000 nM | 1440 nM |

| Structure (SMILES) | EC50 [1] | IC50 (LATS1) |
| --- | --- | --- |
| O=C(O)CCCCCNc1nc(-c2ccncc2)nc2cnccc12 [Example 94, 6-{[2-(pyridin-4-yl)pyrido[3,4-d]pyrimidin-4-yl]amino}hexanoic acid] | > 20000 nM | 1150 nM |
| CC1(Nc2nc(-c3ccncc3)nc3cnccc23)CCC1 [Example 60, N-(1-methylcyclobutyl)-2-(pyridin-4-yl)pyrido[3,4-d]pyrimidin-4-amine] | 440 nM | 1 nM |
| CC(C)(COCC(=O)O)Nc1nc(-c2ccncc2)nc2cnccc12 [Example 25, 2-(2-methyl-2-{[2-(pyridin-4-yl)pyrido[3,4-d]pyrimidin-4-yl]amino}propoxy)acetic acid] | > 20000 nM | 30 nM |
| Fc1cnccc1-c1cc(N2CCOCC2)c2ccncc2n1 [Example 279, 2-(3-fluoropyridin-4-yl)-4-(morpholin-4-yl)-1,7-naphthyridine] | > 20000 nM | > 2500 nM |
| CC1(Nc2nc(-c3ccn[nH]3)nc3cnccc23)CC1 [Example 176, N-(1-methylcyclopropyl)-2-(1H-pyrazol-5-yl)pyrido[3,4-d]pyrimidin-4-amine] | > 20000 nM | > 2500 nM |
| CC(C)(C)Nc1nc(-c2ccncc2C(F)(F)F)nc2cnccc12 [Example 130, N-tert-butyl-2-[3-(trifluoromethyl)pyridin-4-yl]pyrido[3,4-d]pyrimidin-4-amine] | > 20000 nM | 1150 nM |
| CC(Nc1nc(-c2cn[nH]c2)nc2cnccc12)c1ccncc1 (stereo not shown) [Example 183, 2-(1H-pyrazol-4-yl)-N-[1-(pyridin-4-yl)ethyl]pyrido[3,4-d]pyrimidin-4-amine] | > 20000 nM | 797 nM |
| C[C@@H](Nc1nc(-c2cn[nH]c2)nc2cnccc12)c1ccccc1 [Example 167, N-[(1R)-1-phenylethyl]-2-(1H-pyrazol-4-yl)pyrido[3,4-d]pyrimidin-4-amine] | > 20000 nM | 143 nM |
| CC(CO)(Nc1nc(-c2ccncc2)nc2cnccc12)C(F)(F)F (stereo not shown) [Example 67, 3,3,3-trifluoro-2-methyl-2-{[2-(pyridin-4-yl)pyrido[3,4-d]pyrimidin-4-yl]amino}propan-1-ol] | 685 nM | 2 nM |
| CC(C)(Nc1nc(-c2ccncc2)nc2cnccc12)C(=O)O [Example 34, 2-methyl-2-{[2-(pyridin-4-yl)pyrido[3,4-d]pyrimidin-4-yl]amino}propanoic acid] | > 20000 nM | 95 nM |
| CC(C)(O)COCC(C)(C)Nc1nc(-c2c[nH]nc2C(F)(F)F)nc2cnccc12 [Example 121, 2-methyl-1-[2-methyl-2-({2-[3-(trifluoromethyl)-1H-pyrazol-4-yl]pyrido[3,4-d]pyrimidin-4-yl}amino)propoxy]propan-2-ol] | 8170 nM | 14 nM |
| CC(C)(CC(=O)O)NC(=O)CC(C)(C)Nc1nc(-c2ccncc2)nc2cnccc12 [Example 37, 3-methyl-3-(3-methyl-3-{[2-(pyridin-4-yl)pyrido[3,4-d]pyrimidin-4-yl]amino}butanamido) butanoic acid] | > 6670 nM | 233 nM |
| CC(C)(C)Nc1cc(-c2ccncc2Cl)nc2cnccc12 [Example 285, N-tert-butyl-2-(3-chloropyridin-4-yl)-1,7-naphthyridin-4-amine] | > 20000 nM | 190 nM |
| CC1(Nc2nc(-c3cnc[nH]3)nc3cnccc23)CC1 [Example 177, 2-(1H-imidazol-5-yl)-N-(1-methylcyclopropyl)pyrido[3,4-d]pyrimidin-4-amine] | > 20000 nM | > 2500 nM |
| CCCNc1nc(-c2ccncc2C)nc2cnccc12 [Example 164, 2-(3-methylpyridin-4-yl)-N-propylpyrido[3,4-d]pyrimidin-4-amine] | > 20000 nM | 159 nM |
| Clc1cnccc1-c1nc(NCCCc2nnn[nH]2)c2ccncc2n1 [Example 132, 2-(3-chloropyridin-4-yl)-N-[3-(1H-1,2,3,4-tetrazol-5-yl)propyl]pyrido[3,4-d]pyrimidin-4-amine] | > 20000 nM | > 2500 nM |
| c1ccc(Nc2nc(-c3ccncc3)nc3cnccc23)cc1 [Example 92, N-phenyl-2-(pyridin-4-yl)pyrido[3,4-d]pyrimidin-4-amine] | > 20000 nM | 304 nM |
| CN(C)C1(CNc2nc(-c3ccncc3)nc3cnccc23)CCOCC1 [Example 39, N-{[4-(dimethylamino)oxan-4-yl]methyl}-2-(pyridin-4-yl)pyrido[3,4-d]pyrimidin-4-amine] | > 11600 nM | 244 nM |
| Cc1cnccc1-c1nc(N(C)C(C)C)c2ccncc2n1 [Example 128, N-methyl-2-(3-methylpyridin-4-yl)-N-(propan-2-yl)pyrido[3,4-d]pyrimidin-4-amine] | > 20000 nM | 77 nM |
